The values that follow come from patent US9675616B2, “Arylaminoalcohol-substituted 2,3-dihydroimidazo[1,2-C]quinolines” (BAYER INTELLECTUAL PROPERTY GMBH, priority 2010, dated 2017).

Where only a bound is given, the exact number is not on record here.

Assay [1] deals with PI3Kα (complex of human p110α and human p85α) (Homo sapiens (Human), UniProt P42336). As to the kind of experiment: PI3Kα kinase assay (HTRF-based PI3K inhibition assay). The settings on record: 10 μM ATP, 10 μM PIP2; average value; read-out: average IC50 in the PI3K alpha biochemical assay. An excerpt:
Determination of % Inhibition and IC50 Values of Compounds in PI3Kα Kinase Assay
PI3Kα inhibitory activity of compounds of the present invention was quantified employing the HTRF-based PI3K inhibition assay as described below.
(§1) Chemicals and Assay Materials
(§2) As reagents for the kinase reaction itself and the quantification of the reaction product, the PI3-Kinase HTRF Assay kit from Millipore (#33-017) was used. With this kit the phosphatidylinositol 3,4,5-trisphosphate (PIP3) generated in the kinase reaction is detected by displacement of a biotinylated ligand from an energy transfer complex consisting of a Europium-labeled anti-GST monoclonal antibody, a GST-tagged PH domain, biotinylated PIP3 and Streptavidin-Allophycocyanin (APC).
The amount of PI3Kα was chosen to have the enzyme reaction in the linear range and depended on the activity of the individual lot, typical concentrations in assay were in the range of 90 ng/mL. […]
The reaction was stopped by the addition of 1 μL of an stop solution (containing the biotinylated PIP3 used as a tracer), then 1 μL detection mix (containing a Europium-labeled anti-GST monoclonal antibody, a GST-tagged PH domain, and Streptavidin-Allophycocyanin) was added and resulting mixture was incubated 3 h at 22° C. to allow the formation of complexes between the detection reagents and either the PIP3 generated in the kinase reaction, or the biotinylated PIP3 added with the stop solution. Subsequently, the amount of energy transfer complex consisting of a Europium-labeled anti-GST monoclonal antibody, a GST-tagged PH domain, biotinylated PIP3 and Streptavidin-Allophycocyanin (APC) was evaluated by measurement of the resonance energy transfer from the Europium-labeled anti-GST monoclonal antibody to the Streptavidin-Allophycocyanin. Therefore, the fluorescence emissions at 620 nm and 665 nm after excitation at 350 nm were measured using a TR-FRET reader, e.g., a Pherastar (BMG Labtechnologies, Offenburg, Germany) or a Viewlux (Perkin-Elmer). […]
(In TR-FRET formats the signal depends on donor and acceptor labels being close together.)

Assay [2] concerns the target PI3Kβ (complex of human p110β and human p85α) (Homo sapiens (Human), UniProt P42338). Kind of assay: PI3Kβ kinase assay (HTRF based PI3K inhibition assay). The format is biochemical. To be noted: for IC50: 10 μM ATP, 10 μM PIP2, average value, read-out: average IC50 in the PI3K beta biochemical assay; for PI3K beta average IC50/PI3K alpha average IC50: ratio of beta IC50 to alpha IC50 (isoform balance).
From the text: Determination of % Inhibition and IC50 Values of Compounds in PI3Kβ Kinase Assay
PI3Kβ inhibitory activity of compounds of the present invention was quantified employing the HTRF based PI3K inhibition assay as described below.
as §1, §2
For the assay 50 nL of a 80-fold concentrated solution of the test compound in DMSO was pipetted into a black low volume 384-well microtiter plate (Greiner Bio-One, Frickenhausen, Germany), 3 μl of a solution of PI3Kβ and phosphatidylinositol-4,5-bisphosphate (PIP2, 13.8 μM=>final conc. in 4 μl reaction volume=10 μM) in 1× reaction buffer (exact composition not disclosed by the vendor) were added and the mixture was incubated for 15 min at 22° C. to allow pre-binding of the test compounds to the enzyme before the start of the kinase reaction. The amount of PI3Kβ was chosen to have the enzyme reaction in the linear range and depended on the activity of the individual lot, typical concentrations in assay were in the range of 120 ng/mL. Then the kinase reaction was started by the addition of 1 μL of a solution of adenosine triphosphate (ATP, 40 μM=>final conc. in the 4 μl assay volume is 10 μM) in reaction buffer and the resulting mixture was incubated for a reaction time of 20 min at 22° C.
The reaction was stopped by the addition of 1 μL of an stop solution (containing the biotinylated PIP3 used as a tracer). Then 1 μL detection mix (containing a Europium-labeled anti-GST monoclonal antibody, a GST-tagged PH domain, and Streptavidin-Allophycocyanin) was added and resulting mixture was incubated for 3 h at 22° C. to allow the formation of complexes between the detection reagents and either the PIP3 generated in the kinase reaction, or the biotinylated PIP3 added with the stop solution. Subsequently the amount of energy transfer complex consisting of a Europium-labeled anti-GST monoclonal antibody, a GST-tagged PH domain, biotinylated PIP3 and Streptavidin-Allophycocyanin (APC) was evaluated by measurement of the resonance energy transfer from the Europium-labeled anti-GST monoclonal antibody to the Streptavidin-Allophycocyanin. Therefore, the fluorescence emissions at 620 nm and 665 nm after excitation at 350 nm were measured using a TR-FRET reader, e.g., a Pherastar (BMG Labtechnologies, Offenburg, Germany) or a Viewlux (Perkin-Elmer). The ratio of the emissions at 665 nm and at […] were taken as the measure for the amount of biotinylated PIP3 bound to the GST-tagged PH domain, which is negatively correlated with the amount of PIP3 generated.

Sequence of PI3Kα (complex of human p110α and human p85α) (P42336 whole entry): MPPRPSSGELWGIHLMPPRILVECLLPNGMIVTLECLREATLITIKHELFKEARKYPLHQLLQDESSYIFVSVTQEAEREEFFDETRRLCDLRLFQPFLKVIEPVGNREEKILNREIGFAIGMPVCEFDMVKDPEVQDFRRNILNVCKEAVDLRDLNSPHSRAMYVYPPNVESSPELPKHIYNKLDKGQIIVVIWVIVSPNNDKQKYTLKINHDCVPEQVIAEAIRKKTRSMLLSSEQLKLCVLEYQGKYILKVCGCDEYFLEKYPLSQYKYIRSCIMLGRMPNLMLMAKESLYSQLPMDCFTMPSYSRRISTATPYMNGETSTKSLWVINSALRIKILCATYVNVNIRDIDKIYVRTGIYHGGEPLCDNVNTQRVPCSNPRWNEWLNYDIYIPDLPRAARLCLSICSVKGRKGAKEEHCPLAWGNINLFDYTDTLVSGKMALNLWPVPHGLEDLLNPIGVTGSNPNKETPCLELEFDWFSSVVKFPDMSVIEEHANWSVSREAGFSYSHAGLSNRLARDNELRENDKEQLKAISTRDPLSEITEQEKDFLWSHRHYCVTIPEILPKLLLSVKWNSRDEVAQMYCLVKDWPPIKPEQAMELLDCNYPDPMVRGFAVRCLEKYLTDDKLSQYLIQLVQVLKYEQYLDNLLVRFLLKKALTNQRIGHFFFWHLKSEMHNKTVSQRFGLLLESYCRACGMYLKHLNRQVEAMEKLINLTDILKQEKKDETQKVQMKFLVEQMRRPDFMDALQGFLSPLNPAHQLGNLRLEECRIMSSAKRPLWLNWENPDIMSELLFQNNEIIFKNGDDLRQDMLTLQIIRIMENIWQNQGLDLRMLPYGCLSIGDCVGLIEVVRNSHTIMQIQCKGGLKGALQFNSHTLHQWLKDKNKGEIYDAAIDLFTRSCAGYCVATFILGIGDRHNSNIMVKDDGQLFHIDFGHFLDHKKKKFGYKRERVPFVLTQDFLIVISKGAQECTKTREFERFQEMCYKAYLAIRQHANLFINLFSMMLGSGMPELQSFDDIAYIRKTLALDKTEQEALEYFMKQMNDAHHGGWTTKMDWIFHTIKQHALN
Sequence of PI3Kα (complex of human p110α and human p85α) (P27986 whole entry partner): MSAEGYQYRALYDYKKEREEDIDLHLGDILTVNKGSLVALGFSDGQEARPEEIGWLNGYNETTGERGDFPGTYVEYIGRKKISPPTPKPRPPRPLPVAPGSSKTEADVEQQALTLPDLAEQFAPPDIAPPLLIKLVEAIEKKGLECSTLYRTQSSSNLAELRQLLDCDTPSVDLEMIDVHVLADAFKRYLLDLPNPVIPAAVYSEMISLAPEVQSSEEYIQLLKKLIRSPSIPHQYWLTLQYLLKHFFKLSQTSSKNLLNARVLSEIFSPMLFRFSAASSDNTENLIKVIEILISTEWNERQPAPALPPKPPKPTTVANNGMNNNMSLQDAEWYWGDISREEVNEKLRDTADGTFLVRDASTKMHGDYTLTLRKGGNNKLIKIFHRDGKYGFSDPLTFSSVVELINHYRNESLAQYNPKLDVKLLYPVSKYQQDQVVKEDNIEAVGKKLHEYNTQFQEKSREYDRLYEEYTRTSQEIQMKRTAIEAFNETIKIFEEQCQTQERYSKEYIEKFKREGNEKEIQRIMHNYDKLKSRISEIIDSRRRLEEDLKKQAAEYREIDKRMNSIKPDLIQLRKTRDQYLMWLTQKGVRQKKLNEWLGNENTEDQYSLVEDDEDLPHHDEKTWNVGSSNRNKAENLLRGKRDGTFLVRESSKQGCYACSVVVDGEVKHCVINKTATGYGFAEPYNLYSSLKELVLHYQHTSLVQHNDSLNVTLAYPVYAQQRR
Sequence of PI3Kβ (complex of human p110β and human p85α) (P42338 whole entry, canonical isoform): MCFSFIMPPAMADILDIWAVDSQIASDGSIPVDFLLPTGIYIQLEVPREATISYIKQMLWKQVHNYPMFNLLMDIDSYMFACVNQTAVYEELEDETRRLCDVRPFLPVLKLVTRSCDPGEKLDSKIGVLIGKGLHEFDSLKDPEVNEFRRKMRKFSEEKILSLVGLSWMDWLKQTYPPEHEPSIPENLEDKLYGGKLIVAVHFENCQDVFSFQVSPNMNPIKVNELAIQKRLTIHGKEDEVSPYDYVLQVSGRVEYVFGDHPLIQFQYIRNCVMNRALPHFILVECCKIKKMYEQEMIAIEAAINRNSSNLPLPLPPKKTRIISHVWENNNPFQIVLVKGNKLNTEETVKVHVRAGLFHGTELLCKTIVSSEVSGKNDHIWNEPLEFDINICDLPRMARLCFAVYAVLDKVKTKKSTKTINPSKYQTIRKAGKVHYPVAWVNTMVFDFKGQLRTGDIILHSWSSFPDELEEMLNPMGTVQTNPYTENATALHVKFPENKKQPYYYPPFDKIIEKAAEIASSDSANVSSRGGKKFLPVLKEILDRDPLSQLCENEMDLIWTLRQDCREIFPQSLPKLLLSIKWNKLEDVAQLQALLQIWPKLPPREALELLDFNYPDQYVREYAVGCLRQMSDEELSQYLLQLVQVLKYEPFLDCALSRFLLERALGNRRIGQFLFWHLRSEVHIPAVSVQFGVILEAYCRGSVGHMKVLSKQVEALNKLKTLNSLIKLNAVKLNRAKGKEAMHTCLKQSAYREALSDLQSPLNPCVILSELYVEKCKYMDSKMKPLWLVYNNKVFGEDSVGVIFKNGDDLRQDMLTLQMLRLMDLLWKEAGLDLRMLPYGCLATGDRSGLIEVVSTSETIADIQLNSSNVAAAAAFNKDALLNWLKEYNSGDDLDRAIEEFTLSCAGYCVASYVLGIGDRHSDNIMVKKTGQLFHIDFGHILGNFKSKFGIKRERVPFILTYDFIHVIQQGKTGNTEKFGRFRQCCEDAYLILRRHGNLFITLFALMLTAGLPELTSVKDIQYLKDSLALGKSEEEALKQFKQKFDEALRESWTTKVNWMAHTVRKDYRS
Sequence of PI3Kβ (complex of human p110β and human p85α) (P27986 whole entry partner, canonical isoform): as the sequence (P27986 whole entry partner) above

The IC50 is the concentration that gives 50% inhibition. Turning to `COc1c(OC[C@@H](O)CN[C@@H](C)c2ccccc2)ccc2c1N=C(NC(=O)c1cnc(N)nc1)N1CCN=C21` (relative stereo) [Example 5, rel-2-Amino-N-(8-{[(2R)-2-hydroxy-3-{[(1R)-1-phenylethyl]amino}propyl]oxy}-7-methoxy-2,3-dihydroimidazo[1,2-c]quinazolin-5-yl)pyrimidine-5-carboxamide], in assay [1], the IC50 is under 10 nM. In assay [2], the IC50 is under 10 nM and the “PI3K beta average IC50/PI3K alpha average IC50” value is on record as 5.40.
Consider `COc1c(OC[C@@H](O)CN[C@@H](C)c2ccccc2)ccc2c1N=C(NC(=O)c1cnc(N)nc1)N1CCN=C21` [Example 6, 2-Amino-N-(8-{[(2S)-2-hydroxy-3-{[(1S)-1-phenylethyl]amino}propyl]oxy}-7-methoxy-2,3-dihydroimidazo[1,2-c]quinazolin-5-yl)pyrimidine-5-carboxamide], for which the IC50 in assay [1] and in assay [2] was under 10 nM each time. Moreover, in assay [2], the “PI3K beta average IC50/PI3K alpha average IC50” value came to 7.01.
On to `COc1c(OC[C@H](O)CN[C@@H](C)c2ccccc2)ccc2c1N=C(NC(=O)c1cnc(N)nc1)N1CCN=C21` [Example 7, 2-Amino-N-(8-{[(2R)-2-hydroxy-3-{[(1S)-1-phenylethyl]amino}propyl]oxy}-7-methoxy-2,3-dihydroimidazo[1,2-c]quinazolin-5-yl)pyrimidine-5-carboxamide], for which the IC50 in assay [1] and in assay [2] was under 10 nM each time. Also, the “PI3K beta average IC50/PI3K alpha average IC50” value in assay [2] came out at 3.44.
